The record followed here is ChEMBL document CHEMBL4422686, “Optimization of an azetidine series as inhibitors of colony stimulating factor-1 receptor (CSF-1R) Type II to lead to the clinical candidate JTE-952” (Bioorg Med Chem Lett, 2019).

A word on the Vd: it is a proportionality between amount in the body and measured concentration, not a real space. As usually defined, the Cmax is the peak of the concentration-time curve. In general, AUC refers to the area under the concentration-time curve, a measure of exposure. As usually defined, the MRT is the average time that molecules of a dose stay in the body.

What all share (details): in vivo
Series [1] in a line: Volume of distribution in cynomolgus monkey at 1 mg/kg, iv by LC-MS/MS analysis. The class given is ADME, organism-based, Macaca fascicularis.
Series [2] can be described thus: Cmax in Sprague-Dawley rat at 3 mg/kg, po by LC-MS/MS analysis. The class given is ADME, organism-based. Also on record: dose 3 mg/kg, route oral.
Series [3] in a line: Oral bioavailability in Sprague-Dawley rat at 3 mg/kg by LC-MS/MS analysis. It counts as ADME, organism-based.
Series [4] can be described thus: AUC in Sprague-Dawley rat at 3 mg/kg, po by LC-MS/MS analysis. The class given is ADME, organism-based.
Series [5] can be described thus: Mean residence time in Sprague-Dawley rat at 1 mg/kg, iv by LC-MS/MS analysis. It counts as ADME, organism-based.
The nature of series [6]: Mean residence time in cynomolgus monkey at 1 mg/kg, iv by LC-MS/MS analysis. It counts as ADME, organism-based, Macaca fascicularis.
Series [7] is described as follows: Volume of distribution in Sprague-Dawley rat at 1 mg/kg, iv by LC-MS/MS analysis. The class given is ADME, organism-based.

As for `COc1cc(C2CN(C(=O)c3cc(COC[C@@H](O)CO)ccn3)C2)ccc1OCc1ccc(C2CC2)cc1`, the Vd in series [1] was 5 L/kg; in series [7] it was 3.27 L/kg. Also, in series [2], the Cmax is 490 nM. The bioavailability in series [3] was 85.1%. Moreover, the AUC in series [4] was 2.22 µM·h. The figures for the MRT in series [5] and in series [6] were 1.46 h and 7.5 h, respectively.
On to `COc1cc(C2CN(C(=O)c3cc(OC[C@H](O)CO)ccn3)C2)ccc1OCc1ccc(C2CC2)cc1`, for which the Vd in series [1] was 0.76 L/kg; in series [7], 1.51 L/kg. In series [2], this molecule gave a Cmax of 740 nM. Also, the bioavailability in series [3] turned out to be 75.8%. In addition, in series [4], the AUC is 4.15 µM·h. In addition, the MRT in series [5] was 1.37 h; in series [6], 0.28 h.
As to `COc1cc(C2CN(C(=O)c3cc(COCC(CO)(CO)CO)ccn3)C2)ccc1OCc1ccc(C2CC2)cc1`, the results for the Vd in series [1] and in series [7] were 0.56 L/kg and 3.46 L/kg, respectively. For the same molecule, the Cmax in series [2] came out at 270 nM. The bioavailability in series [3] came to 116%. For the same molecule, the AUC in series [4] worked out at 1.63 µM·h. Moreover, the MRT in series [5] worked out at 0.91 h; in series [6], 1.2 h.
